Laboratory results published in ChEMBL document CHEMBL1153614, “Synthesis, spectral characterization, in-vitro microbiological evaluation and cytotoxic activities of novel macrocyclic bis hydrazone” (Eur J Med Chem, 2009).

What was measured:
Aspergillus niger = experiment: Antifungal activity against Aspergillus niger at 10 ug/ml for 48 hrs by disc diffusion method; format: functional
Candida albicans = experiment: Antifungal activity against Candida albicans at 10 ug/ml for 48 hrs by disc diffusion method; format: functional
Penicillium = experiment: Antifungal activity against Penicillium at 10 ug/ml for 48 hrs by disc diffusion method; format: functional
Staphylococcus aureus = experiment: Antibacterial activity against Staphylococcus aureus at 10 ug/ml for 24 hrs by disc diffusion method; format: functional
Pseudomonas aeruginosa = experiment: Antibacterial activity against Pseudomonas aeruginosa at 10 ug/ml for 24 hrs by disc diffusion method; format: functional
Bacillus subtilis = experiment: Antibacterial activity against Bacillus subtilis at 10 ug/ml for 24 hrs by disc diffusion method; format: functional
Micrococcus = experiment: Antibacterial activity against Micrococcus sp. at 10 ug/ml for 24 hrs by disc diffusion method; format: functional
Artemia salina = experiment: Toxicity against Artemia salina; format: organism-based; details: in vivo
Shigella dysenteriae = experiment: Antibacterial activity against Shigella dysenteriae at 10 ug/ml for 24 hrs by disc diffusion method; format: functional
Escherichia coli = experiment: Antibacterial activity against Escherichia coli at 10 ug/ml for 24 hrs by disc diffusion method; format: functional
Bacillus cereus = experiment: Antibacterial activity against Bacillus cereus at 10 ug/ml for 24 hrs by disc diffusion method; format: functional

Molecule | Activity (Aspergillus niger) | Activity (Candida albicans) | Activity (Penicillium) | Activity (Staphylococcus aureus) | Activity (Pseudomonas aeruginosa) | Activity (Bacillus subtilis) | Activity (Micrococcus) | Activity (Artemia salina) | Activity (Shigella dysenteriae) | Activity (Escherichia coli) | Activity (Bacillus cereus)
OC(Cn1cncn1)(Cn1cncn1)c1ccc(F)cc1F [FLUCONAZOLE] | 24 mm | 24 mm | 24 mm |  |  |  |  |  |  |  | 
Cc1cc2c(O)c(c1)/C=N\NC(=O)c1ccc(cc1)C(=O)N/N=C\c1cc(O)c(cc1C)/C=N\NC(=O)c1ccc(cc1)C(=O)NN=C2 | 22 mm | 16 mm | 20 mm | 10 mm | 14 mm | 20 mm | 14 mm | Non-toxic | 16 mm | 16 mm | 16 mm
GENTAMICIN |  |  |  | 20 mm | 20 mm | 20 mm | 20 mm |  | 20 mm | 20 mm | 20 mm
